# Patent publication US20060069132A1, “Azolecarboxamide herbicides” (priority 2004, published 2006)
# Assays:
# rice [1] = assay: Test C flooded paddy test; type: in vivo, Oryza sativa
# Outline: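 Postemergence sprays applied to plants 2 to 18 cm tall (1- to 4-leaf stage); paddy species grown to 2-leaf stage under flooding. After 12 to 14 days in greenhouse, visual rating versus untreated controls on 0–100 scale (0 no effect, 100 complete control).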
# barnyardgrass = assay: Test A pre-/postemergence herbicide test; type: in vivo, Echinochloa crus-galli
# Outline: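 Greenhouse injury scoring (0–100, complete control = 100) at approximately ten days follows simultaneous pre- and postemergence application. Soil received a directed spray after seeding; seedlings of 2–10 cm at the one- to two-leaf stage were sprayed to runoff.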
# Surinam grass = assay: Test C pre-/postemergence herbicide test; type: in vivo, Urochloa decumbens; details: for Surinam Grass plant response rating: 500 g ai/ha
# Outline: (§1)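 Pre/post spray; non-phytotoxic solvent + surfactant. Post-timing 1–4 leaves, 2–18 cm. Read-out: visual % control vs untreated, day 12–14, greenhouse.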
# common ragweed = assay: Test C pre-/postemergence herbicide test; type: in vivo, Ambrosia elatior; set-up: key to Plant response rating, Ragweed: 0 = no effect, 100 = complete control; details: for Ragweed plant response rating: 500 g ai/ha
# Outline: as §1
# large crabgrass = assay: Test C pre-/postemergence herbicide test; type: in vivo, Digitaria sanguinalis; details: for Crabgrass, Large plant response rating: 500 g ai/ha
# Outline: as §1
# chickweed = assay: Test C postemergence herbicide test; type: in vivo, Stellaria media
# Outline: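 Plants were grown to the 1- to 4-leaf stage (2–18 cm) and then treated postemergence, or grown to the 2-leaf stage for the flooded paddy test. They were held in a greenhouse for 12 to 14 days and then scored by eye against controls, where 0 is no effect and 100 is complete control.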
# eastern black nightshade = assay: Test C pre-/postemergence herbicide test; type: in vivo, Solanum ptycanthum
# Outline: as §1
# ducksalad = assay: Test C flooded paddy test; type: in vivo, Heteranthera limosa
# rice [2] = assay: Test B pre-/postemergence herbicide test; type: in vivo, Oryza sativa; details: preemergence, 125 g ai/ha; 0 to 100 scale, 0 is no effect, 100 is complete control
# Outline: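 Plants compared with untreated controls 13–15 days post-treatment and given a visual 0–100 injury score. Applications: preemergence to seeds; postemergence at 1- to 4-leaf (2–18 cm); paddy species flooded, 2-leaf stage. Vehicle non-phytotoxic, surfactant included.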
# pigweed = assay: Test C pre-/postemergence herbicide test; type: in vivo, Amaranthus retroflexus; details: for Pigweed plant response rating: 500 g ai/ha
# Outline: as §1
# [3] = 62 g ai/ha, scale 0 to 100 (0 no effect, 100 complete control)
# [4] = 125 g ai/ha, scale of 0 to 100, 0 is no effect, 100 is complete control
# [5] = 250 g ai/ha, scale of 0 to 100, 0 is no effect, 100 is complete control
# [6] = 500 g ai/ha, visual rating after 12 to 14 days, scale 0 to 100 (0 no effect, 100 complete control)
# [7] = 125 g ai/ha, scale 0 (no effect) to 100 (complete control), visual, 12 to 14 days, preemergence
# [8] = Postemergence, 250 g ai/ha, scale 0 to 100, 0 no effect, 100 complete control
# [9] = Preemergence, scale 0 to 100, 0 no effect, 100 complete control
# [10] = postemergence, 125 g ai/ha, scale 0 to 100
# [11] = postemergence, 62 g ai/ha, scale 0 to 100
smiles,measurement,setting,value
CC(=NO)c1cccc(NC(=O)c2cc(C(C)(C)C)nn2CCF)c1 [Compound 115],Rice plant response rating,rice [1]; [3],55
same,Rice plant response rating,rice [1]; [4],65
same,Rice plant response rating,rice [1]; [5],75
same,"Plant response rating, Rice",rice [1]; [6],75
same,Barnyardgrass plant response rating,"barnyardgrass; Postemergence, 500 g ai/ha, 0 to 100 scale, 0 no effect, 100 complete control",70
same,"Plant response rating, Barnyardgrass","barnyardgrass; Postemergence, 2000 g ai/ha, 0 to 100 scale, 0 no effect, 100 complete control",80
same,Barnyardgrass plant response rating,"barnyardgrass; Preemergence, 500 g ai/ha, visual rating, 0 to 100 scale (0 no effect, 100 complete control)",70
same,Barnyardgrass plant response rating,"barnyardgrass; Preemergence, 2000 g ai/ha, visual rating, 0 to 100 scale (0 no effect, 100 complete control)",85
same,"Plant response rating (0 = no effect, 100 = complete control), Surinam Grass","Surinam grass; 62 g ai/ha, preemergence",20
same,"Plant response rating, Surinam Grass",Surinam grass; [7],40
same,Surinam Grass plant response rating,"Surinam grass; Postemergence, scale 0 to 100",60
same,"Plant response rating, Surinam Grass",Surinam grass; [8],60
same,Surinam Grass plant response rating,Surinam grass; [9],90
same,"Plant response rating, Surinam Grass",Surinam grass; [10],40
same,"Plant response rating, Surinam Grass",Surinam grass; [11],30
same,"Plant response rating (0 = no effect, 100 = complete control), Ragweed","common ragweed; 62 g ai/ha, preemergence",70
same,"Plant response rating, Ragweed",common ragweed; [7],80
same,Ragweed plant response rating,"common ragweed; Postemergence, scale 0 to 100",90
same,"Plant response rating, Ragweed",common ragweed; [8],70
same,Ragweed plant response rating,common ragweed; [9],100
same,"Plant response rating, Ragweed",common ragweed; [10],70
same,"Plant response rating, Ragweed",common ragweed; [11],70
same,"Plant response rating (0 = no effect, 100 = complete control), Crabgrass, Large","large crabgrass; 62 g ai/ha, preemergence",100
same,"Plant response rating, Crabgrass, Large",large crabgrass; [7],100
same,"Plant response rating, Crabgrass, Large","large crabgrass; 250 g ai/ha, scale 0 to 100 (0 no effect, 100 complete control), visual, 12 to 14 days, preemergence",100
same,"Crabgrass, Large plant response rating","large crabgrass; Postemergence, scale 0 to 100",90
same,"Plant response rating, Crabgrass, Large",large crabgrass; [8],70
same,"Crabgrass, Large plant response rating",large crabgrass; [9],100
same,"Plant response rating, Crabgrass, Large",large crabgrass; [10],70
same,"Plant response rating, Crabgrass, Large",large crabgrass; [11],60
same,Chickweed plant response rating,"chickweed; Postemergence, 500 g ai/ha, scale 0 to 100",100
same,"Plant response rating, Chickweed",chickweed; [8],100
same,"Plant response rating, Chickweed",chickweed; [10],100
same,"Plant response rating, Chickweed",chickweed; [11],100
same,"Plant response rating (0 = no effect, 100 = complete control), Nightshade","eastern black nightshade; 62 g ai/ha, preemergence",100
same,"Plant response rating, Nightshade",eastern black nightshade; [7],100
same,Nightshade plant response rating,"eastern black nightshade; Preemergence, 500 g ai/ha, scale 0 to 100, 0 no effect, 100 complete control",100
same,Ducksalad plant response rating,ducksalad; [3],30
same,Ducksalad plant response rating,ducksalad; [4],75
same,Ducksalad plant response rating,ducksalad; [5],85
same,"Plant response rating, Ducksalad",ducksalad; [6],90
same,"Plant response rating, Rice",rice [2],0
same,"Plant response rating (0 = no effect, 100 = complete control), Pigweed","pigweed; 62 g ai/ha, preemergence",100
same,"Plant response rating, Pigweed",pigweed; [7],100
same,Pigweed plant response rating,"pigweed; Postemergence, scale 0 to 100",100
same,"Plant response rating, Pigweed",pigweed; [8],100
same,Pigweed plant response rating,pigweed; [9],100
same,"Plant response rating, Pigweed",pigweed; [10],100
same,"Plant response rating, Pigweed",pigweed; [11],100
